Assay results taken from the supplement of paper PMC10307832.

Tests used:
Experiment in all cases: relative viability (nuclei count vs DMSO), 5 days (fraction); higher = more cells survive
201T = system: 201T
How it was run: (§1)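 Lung cancer cell lines in 1536-well plates were dosed by pin tool the day after seeding, either with one drug alone or with a fixed anchor-drug dose plus five library-drug doses (not always all listed) in √10 steps. After 5 days, cells were fixed and their nuclei stained in one step (final 0.05% Triton X-100, 1% formaldehyde, 1 ug/ml Hoechst), then counted on 4× images. Relative viability is the nuclei count in treated wells divided by that in vehicle wells. Values are medians of duplicate plates.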

BEN = system: BEN
How it was run: as §1

COR-L 105 = system: COR-L 105
How it was run: as §1

COR-L23 = system: COR-L23
How it was run: as §1

EKVX = system: EKVX
How it was run: as §1

HARA = system: HARA
How it was run: as §1

HCC-15 = system: HCC-15
How it was run: as §1

HCC-366 = system: HCC-366
How it was run: as §1

HCC-78 = system: HCC-78
How it was run: as §1

HCC-827 = system: HCC-827
How it was run: as §1

LC-2-ad = system: LC-2-ad
How it was run: as §1

Compound `O=C(O)CCCCC(CCSCc1ccccc1)SCc1ccccc1` (stereo not given) [CPI-613] + CC(C)C[C@H](NC(=O)[C@H](Cc1ccccc1)NC(=O)c1cnccn1)B(O)O [Bortezomib] (partner 0.002 µM) has a relative viability (201T; first compound 5 µM) of 1.08, a relative viability (201T; first compound 15.81 µM) of 1.03 and a relative viability (201T; first compound 50 µM) of 1.09. It also gave a relative viability (201T; first compound 158.11 µM) of 0.995, a relative viability (201T; first compound 500 µM) of 0.949 and a relative viability (BEN; first compound 5 µM) of 0.819. It also gave a relative viability (BEN; first compound 15.81 µM) of 0.539, a relative viability (BEN; first compound 50 µM) of 0.633 and a relative viability (BEN; first compound 158.11 µM) of 0.708. For the same compound, the relative viability (BEN; first compound 500 µM) was 0.658, the relative viability (COR-L 105; first compound 5 µM) was 0.652 and the relative viability (COR-L 105; first compound 15.81 µM) was 0.859. It also gave a relative viability (COR-L 105; first compound 50 µM) of 0.542, a relative viability (COR-L 105; first compound 158.11 µM) of 0.287 and a relative viability (COR-L 105; first compound 500 µM) of 0.195. The relative viability (COR-L23; first compound 5 µM) was 0.938, the relative viability (COR-L23; first compound 15.81 µM) was 0.941 and the relative viability (COR-L23; first compound 50 µM) was 1. For the same compound, the relative viability (COR-L23; first compound 158.11 µM) was 0.408, the relative viability (COR-L23; first compound 500 µM) was 0.0074 and the relative viability (EKVX; first compound 5 µM) was 0.864. The relative viability (EKVX; first compound 15.81 µM) was 0.957, the relative viability (EKVX; first compound 50 µM) was 1.05 and the relative viability (EKVX; first compound 158.11 µM) was 0.548. For the same compound, the relative viability (EKVX; first compound 500 µM) was 1.04, the relative viability (HARA; first compound 5 µM) was 1.02 and the relative viability (HARA; first compound 15.81 µM) was 1.09. The relative viability (HARA; first compound 50 µM) was 1.19, the relative viability (HARA; first compound 158.11 µM) was 0.716 and the relative viability (HARA; first compound 500 µM) was 0.114. For the same compound, the relative viability (HCC-15; first compound 5 µM) was 0.938, the relative viability (HCC-15; first compound 15.81 µM) was 0.932 and the relative viability (HCC-15; first compound 50 µM) was 0.905. It also gave a relative viability (HCC-15; first compound 158.11 µM) of 0.757, a relative viability (HCC-15; first compound 500 µM) of 0.394 and a relative viability (HCC-366; first compound 5 µM) of 1.01. The relative viability (HCC-366; first compound 15.81 µM) was 0.957, the relative viability (HCC-366; first compound 50 µM) was 1.06 and the relative viability (HCC-366; first compound 158.11 µM) was 0.391. It also gave a relative viability (HCC-366; first compound 500 µM) of 0.0068, a relative viability (HCC-78; first compound 5 µM) of 0.5 and a relative viability (HCC-78; first compound 15.81 µM) of 0.397. The relative viability (HCC-78; first compound 50 µM) was 0.553, the relative viability (HCC-78; first compound 158.11 µM) was 0.445 and the relative viability (HCC-78; first compound 500 µM) was 0.602. It also gave a relative viability (HCC-827; first compound 5 µM) of 0.923, a relative viability (HCC-827; first compound 15.81 µM) of 1.02 and a relative viability (HCC-827; first compound 50 µM) of 0.926. The relative viability (HCC-827; first compound 158.11 µM) was 0.916, the relative viability (HCC-827; first compound 500 µM) was 0.786 and the relative viability (LC-2-ad; first compound 5 µM) was 0.621. It also gave a relative viability (LC-2-ad; first compound 15.81 µM) of 0.932, a relative viability (LC-2-ad; first compound 50 µM) of 0.979 and a relative viability (LC-2-ad; first compound 158.11 µM) of 0.259. The relative viability (LC-2-ad; first compound 500 µM) was 0.0023.
